This is an account of results in patent US8653069B2, “Aralkyl substituted piperidine or piperazine derivatives and their use for treating schizophrenia” (Jiangsu Hengyi Pharmaceutical Co., Ltd., priority 2008, dated 2014).

Counter-ions that a name gives are not always drawn.

Data set [1] concerns the target T1, dopamine D2 receptor (Homo sapiens, UniProt P14416).
T1 construct: expressed in transfected cells; host or cells: CHO-hD2L cells (membrane preparation)
The data set is described as follows: Dopamine D2 receptor-binding assay ([3H]Spiperone displacement). The conditions noted are these: inhibition of binding of 0.4 nM [3H]Spiperone, CHO-hD2L film product, room temperature 120 minutes; read-out: IC50 (affinity to D2 receptor). How it is done: A Dopamine D2 Receptor-Binding Assay
An isotope ligand for D2 receptor: [^3H]Spiperone (77.0 Ci/mmol); (+)Butaclamol; GF/C glass fiber media; a liposoluble scintillation solution; and the D2 receptor protein expressed by sf9 cells.
A binding assay of a film product of CHO-hD2L cells and [^3H]Spiperone is conducted in a 250 μl of 50 mM of Tris-HCl […] buffer (Ph=7.4) solution comprising 100 mM of NaCl, 1 mM of MgC12 and 1% of DMSO. A sample in duplicate containing compounds to be tested, 0.4 nM of [^3H]Spiperone and 12 ug of protein is maintained at room temperature for 120 minutes. The bound radioactive ligand is separated by flash filtration under reduced pressure using Whatman GF/B glass fiber filter pre-treated with 0.3% polyethylenelmine, and radioactivity maintained on the filter is measured using liquid scintillation spectrophotometry. The title compounds in the following examples are tested using the above test, which comprises first of all testing competitive inhibition rate of each compound at a concentration of 10 umol/L to binding of [^3H]Spiperone to D2 receptor through a rough screening; and compounds having inhibition rate higher than 95% are subjected to receptor binding assay under a series of concentrations to determine a half-inhibitory concentration (IC50, the concentration of a compound needed for inhibiting binding of 50% [^3H]Spiperone to D2 receptor). Two tubes under each concentration are measured, and each compound is subjected to two independent tests.

Data set [2] has as its target T2, rD2R (Rattus norvegicus, UniProt P61169).
T2 construct: expressed in transfected cells; host or cells: CHO cells stably expressing rD2R (CHO-rD2)
The data set can be described thus: Antagonistic test of D2 receptor (cAMP radioimmunoassay, Forskolin + Dopamine, CHO-rD2 cells). In kind it is cell-based. The conditions noted are these: 10 μM Forskolin + 10 μM Dopamine, cAMP generated. How it is done: An Antagonistic Test of D2 Receptor
CHO-rD2 cell is seeded on a 96-well plate at a concentration of 30,000 cells/well, and cultured overnight; each medicine is dissolved in a serum-free F12 culture media containing 100 μM of IBMX, and is added to the above cell for preculturing 30 minutes at 37° C.; thereafter a serum-free F12 culture media containing 10 μM of Forskolin and 10 μM of Dopamine is added and react for 8 minutes, and then 100 μl of pre-cooled 1M HClO4 is added to terminate the reaction. The reaction solution is allowed to stand on ice for 40 minutes, and thereto 20 μl of 2M K2CO3 is added to neutralize the reaction solution. The reaction solution is centrifuged at 3,000 rpm for 15 minutes at 4° C., and a KClO4 deposit is discarded. An amount of supernatant is diluted in 0.05M of acetic acid buffer, and the amount of generated cAMP is measured with radioimmunoassay method. […] See the kit's instructions for detailed steps. Two tubes under each concentration of each compound are measured, and each compound is subjected to two independent tests.
The ordinate of the dose-effect curve represents a reduced percentage of the amount of generated cAMP through antagonist of DA by the compound.

A short description of data set [3]: in vivo. The conditions noted are these: mouse, po.

T1 sequence (P14416 whole entry): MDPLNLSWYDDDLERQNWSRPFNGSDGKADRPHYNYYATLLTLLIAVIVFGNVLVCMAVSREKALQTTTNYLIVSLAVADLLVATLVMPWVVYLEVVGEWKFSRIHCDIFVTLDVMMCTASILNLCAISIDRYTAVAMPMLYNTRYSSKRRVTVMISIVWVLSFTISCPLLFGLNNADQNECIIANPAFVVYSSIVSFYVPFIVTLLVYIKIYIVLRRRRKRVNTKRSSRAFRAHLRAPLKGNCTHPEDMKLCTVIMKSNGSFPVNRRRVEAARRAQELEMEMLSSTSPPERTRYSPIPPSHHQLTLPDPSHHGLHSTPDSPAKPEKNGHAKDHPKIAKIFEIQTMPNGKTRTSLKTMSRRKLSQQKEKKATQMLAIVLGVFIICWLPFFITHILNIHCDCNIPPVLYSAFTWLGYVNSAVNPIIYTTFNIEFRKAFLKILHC
T2 sequence (P61169 whole entry): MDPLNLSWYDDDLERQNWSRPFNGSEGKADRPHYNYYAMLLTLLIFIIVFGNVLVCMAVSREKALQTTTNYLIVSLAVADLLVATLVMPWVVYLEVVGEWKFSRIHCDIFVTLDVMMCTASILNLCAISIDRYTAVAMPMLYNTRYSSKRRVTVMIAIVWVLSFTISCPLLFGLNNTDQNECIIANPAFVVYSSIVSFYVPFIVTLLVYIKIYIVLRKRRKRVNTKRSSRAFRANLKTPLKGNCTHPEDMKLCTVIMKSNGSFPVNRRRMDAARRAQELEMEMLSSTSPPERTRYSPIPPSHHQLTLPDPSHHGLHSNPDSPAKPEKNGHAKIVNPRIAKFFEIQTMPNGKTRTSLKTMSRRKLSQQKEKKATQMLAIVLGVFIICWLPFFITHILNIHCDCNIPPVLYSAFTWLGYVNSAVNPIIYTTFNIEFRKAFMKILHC

One may read the IC50 as the point on the concentration scale where inhibition reaches its midpoint. On to “6-[4-(4-(3-(6-fluoro-benzisoxazolyl))-1-piperazinyl)-n-butoxy]-(1H)-indole [IV-3]”, for which, in data set [1], the IC50 came to 12.3 nM.

Turning to `O=C1CCc2ccc(OCCCCN3CCN(c4noc5cc(Cl)ccc45)CC3)cc2N1` [I-1, 7-[4-(4-(6-chloro-benzisoxazolyl)-1-piperazinyl)-n-butoxy]-3,4-dihydro-2(1H)-quinolinone hydrochloride], the IC50 in data set [1] worked out at 25.7 nM.

As to `O=C1CCc2ccc(OCCCCN3CCN(c4noc5ccc(Cl)cc45)CC3)cc2N1` [I-2, 7-[4-(4-(5-chloro-benzisoxazolyl)-1-piperazinyl)-n-butoxy]-3,4-dihydro-2(1H)-quinolinone hydrochloride], the IC50 in data set [1] is 56.8 nM.

As for `O=C1CCc2ccc(OCCCCN3CCN(c4noc5ccccc45)CC3)cc2N1` [I-3, 7-[4-(4-(benzisoxazolyl)-1-piperazinyl)-n-butoxy]-3,4-dihydro-2(1H)-quinolinone hydrochloride], the half-inhibitory concentration (IC50) in data set [1] stood at 99.3 nM.

Consider `O=C1CCc2ccc(OCCCCN3CCN(c4noc5cc(F)ccc45)CC3)cc2N1` [I-4, 7-[4-(4-(6-fluoro-benzisoxazolyl)-1-piperazinyl)-n-butoxy]-3,4-dihydro-2(1H)-quinolinone hydrochloride], for which the IC50 in data set [1] amounted to 10.2 nM.

`O=C1CCc2ccc(OCCCCN3CCN(c4noc5cc(C(F)(F)F)ccc45)CC3)cc2N1` [I-5, 7-[4-(4-(6-trifluoromethyl-benzisoxazolyl)-1-piperazinyl)-n-butoxy]-3,4-dihydro-2(1H)-quinolinone hydrochloride]: the IC50 in data set [1] was 53.6 nM.

`Cc1ccc2onc(N3CCN(CCCCOc4ccc5c(c4)NC(=O)CC5)CC3)c2c1` [I-7, 7-[4-(4-(5-methyl-benzisoxazoly)-1-piperazinyl)-n-butoxy]-3,4-dihydro-2(1H)-quinolinone hydrochloride]: the IC50 in data set [1] amounted to 290 nM.

In the case of `O=C1CCc2ccc(OCCCCN3CCN(c4noc5cc(O)ccc45)CC3)cc2N1` [I-8, 7-[4-(4-(6-hydroxy-benzisoxazolyl)-1-piperazinyl)-n-butoxy]-3,4-dihydro-2(1H)-quinolinone hydrochloride], the IC50 in data set [1] is 157 nM.

Consider `COc1ccc2onc(N3CCN(CCCCOc4ccc5c(c4)NC(=O)CC5)CC3)c2c1` [I-9, 7-[4-(4-(5-methoxy-benzisoxazolyl)-1-piperazinyl)-n-butoxy]-3,4-dihydro-2(1H)-quinolinone hydrochloride], for which the IC50 in data set [1] was 25 nM.

With `O=C1CCc2ccc(OCCCCN3CCN(c4noc5ccc(Br)cc45)CC3)cc2N1` [I-11, 7-[4-(4-(5-bromo-benzisoxazolyl)-1-piperazinyl)-n-butoxy]-3,4-dihydro-2(1H)-quinolinone hydrochloride], the IC50 in data set [1] was 77.8 nM.

Consider `COc1ccc2c(N3CCN(CCCCOc4ccc5c(c4)NC(=O)CC5)CC3)noc2c1Br` [I-12, 7-[4-(4-(7-bromo-6-methoxy-benzisoxazolyl)-1-piperazinyl)-n-butoxy]-3,4-dihydro-2(1H)-quinolinone hydrochloride], for which the half-inhibitory concentration (IC50) in data set [1] turned out to be 10.2 nM.

`O=C1CCc2ccc(OCCCN3CCC(c4noc5cc(F)ccc45)CC3)cc2N1` [II-2, 7-[3-(4-(6-fluoro-benzisoxazolyl)-1-piperidinyl)-n-propoxy]-3,4-dihydro-2(1H)-quinolinone hydrochloride]: the IC50 in data set [1] was found to be 16.2 nM.

Turning to `O=C1CCc2ccc(OCCCCCN3CCC(c4noc5cc(F)ccc45)CC3)cc2N1` [II-3, 7-[5-(4-(6-fluoro-benzisoxazolyl)-1-piperidinyl)-pentyloxy]-3,4-dihydro-2(1H)-quinolinone hydrochloride], the IC50 in data set [1] was 202 nM.

For the compound `O=C1CCc2ccc(OCCCCN3CCC(c4noc5ccccc45)CC3)cc2N1` [II-4, 7-[(4-benzisoxazolyl-1-piperidinyl)-n-butoxy]-3,4-dihydro-2(1H)-quinolinone hydrochloride], in data set [1], the IC50 was 23.6 nM.

Consider `O=C1CCc2ccc(OCCCCN3CCC(c4noc5cc(Cl)ccc45)CC3)cc2N1` [II-5, 7-[4-(4-(6-chloro-benzisoxazolyl)-1-piperidinyl)-n-butoxy]-3,4-dihydro-2(1H)-quinolinone hydrochloride], for which the half-maximal inhibitory concentration (IC50) in data set [1] turned out to be 15.8 nM.

As for `COc1ccc2onc(C3CCN(CCCCOc4ccc5c(c4)NC(=O)CC5)CC3)c2c1` [II-6, 7-[4-(4-(5-methoxy-benzisoxazolyl)-1-piperidinyl)-n-butoxy]-3,4-dihydro-2(1H)-quinolinone hydrochloride], the IC50 in data set [1] was 277 nM.

For the compound `O=C1CCc2ccc(OCCCCN3CCC(c4noc5ccc(F)cc45)CC3)cc2N1` [II-7, 7-[4-(4-(5-fluoro-benzisoxazolyl)-1-piperidinyl)-n-butoxy]-3,4-dihydro-2(1H)-quinolinone hydrochloride], the IC50 in data set [1] was 12.6 nM.

`COc1cc2onc(C3CCN(CCCCOc4ccc5c(c4)NC(=O)CC5)CC3)c2cc1OC` [II-8, 7-[4-(4-(5,6-dimethoxy-benzisoxazolyl)-1-piperidinyl)-n-butoxy]-3,4-dihydro-2(1H)-quinolinone hydrochloride]: in data set [1], the IC50 stood at 23.8 nM.

Take `O=C1CCc2ccc(OCCCCN3CCC(c4noc5ccc(O)cc45)CC3)cc2N1` [II-9, 7-[4-(5-hydroxy-benzisoxazolyl)-1-piperidinyl)-n-butoxy]-3,4-dihydro-2(1H)-quinolinone hydrochloride]: the IC50 in data set [1] was 78.8 nM.

Regarding `O=C1CCc2ccc(OCCCCN3CCC(c4noc5cc(O)c(O)cc45)CC3)cc2N1` [II-10, 7-[4-(5,6-dihydroxy-benzisoxazolyl)-1-piperidinyl)-n-butoxy]-3,4-dihydro-2(1H)-quinolinone hydrochloride], in data set [1], the 50% inhibitory concentration (IC50) is 45.6 nM.

For the compound `O=C1CCc2ccc(OCCCCN3CCN(c4nsc5ccccc45)CC3)cc2N1` [III-1, 7-[4-(1,2-benzisothiazol-3-yl)-1-piperazinyl)-n-butoxy]-3,4-dihydro-2(1H)-quinolinone hydrochloride], the results for the IC50 in data set [1] and in data set [2] were 5.23 nM and 56400 nM, respectively.

Turning to `O=C1CCc2ccc(OCCCN3CCN(c4nsc5ccccc45)CC3)cc2N1` [III-2, 7-[3-(1,2-benzisothiazolyl)-1-piperazinyl]-n-propoxy]-3,4-dihydro-2(1H)-quinolinone hydrochloride], in data set [1], the 50% inhibitory concentration (IC50) was found to be 76.8 nM.

As to `COc1ccc2c(N3CCN(CCCCOc4ccc5c(c4)NC(=O)CC5)CC3)nsc2c1` [III-4, 7-[4-(6-methoxy-1,2-benzisothiazolyl)-1-piperazinyl]-n-butoxy]-3,4-dihydro-2(1H)-quinolinone of hydrochloride], the IC50 in data set [1] is 17.9 nM.

For the compound `COc1cccc2c(N3CCN(CCCCOc4ccc5c(c4)NC(=O)CC5)CC3)nsc12` [III-5, 7-[4-(7-methoxy-1,2-benzisothiazolyl)-1-piperazinyl]-n-butoxy-3,4-dihydro-2(1H)-quinolinone hydrochloride], the 50% inhibitory concentration (IC50) in data set [1] was determined as 15.8 nM.

For `COc1ccc2snc(N3CCN(CCCCOc4ccc5c(c4)NC(=O)CC5)CC3)c2c1` [III-6, 7-[4-(5-methoxy-1,2-benzisothiazolyl)-1-piperazinyl]-n-butoxy]-3,4-dihydro-2(1H)-quinolinone hydrochloride], the half-maximal inhibitory concentration (IC50) in data set [1] was determined as 15 nM.

As to `COc1cccc2snc(N3CCN(CCCCOc4ccc5c(c4)NC(=O)CC5)CC3)c12` [III-7, 7-[4-(4-methoxy-1,2-benzisothiazolyl)-1-piperazinyl]-n-butoxy]-3,4-dihydro-2(1H)-quinolinone hydrochloride], the IC50 in data set [1] is 168 nM.

For `O=C1Cc2ccc(OCCCCN3CCC(c4noc5cc(F)ccc45)CC3)cc2N1` [IV-1, 6-[4-(4-(3-(6-fluoro-benzisoxazolyl))-1-piperidinyl)-n-butoxy)-indoline-2-one], the 50% inhibitory concentration (IC50) in data set [1] came to 38.9 nM; in data set [2], 198000 nM.

Usually LD50 stands for the dose at which mortality reaches 50%. In data set [3], `O=C1Cc2cc(CCN3CCN(c4nsc5ccccc45)CC3)c(Cl)cc2N1` [ziprasidone] displayed a 50% lethal dose (LD50) of 1600 mg/kg.
